{"source": "patent US12636275B2", "about": "“Pharmaceutical use of ketoamide-based compound” (Shanghai Institute of Materia Medica, Chinese Academy of …, priority 2020, dated 2026)", "key": {"[1]": {"system": "2019 novel coronavirus (2019-nCov)", "conditions": "stated for positive control; read-out: EC50, inhibition of 2019-nCoV virus replication (positive compound CQ); cited from earlier work"}, "human cathepsin L": {"target": "human cathepsin L (Homo sapiens, UniProt P07711)", "sequence (P07711 114-333)": "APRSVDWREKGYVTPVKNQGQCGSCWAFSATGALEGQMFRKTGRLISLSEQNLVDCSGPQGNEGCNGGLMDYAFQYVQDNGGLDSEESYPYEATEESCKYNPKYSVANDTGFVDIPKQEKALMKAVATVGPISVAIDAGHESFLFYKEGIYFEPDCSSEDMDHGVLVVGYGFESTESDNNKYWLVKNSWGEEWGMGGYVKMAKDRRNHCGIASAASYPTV", "experiment": "Inhibitory activity against human cathepsin L (FRET, Z-Phe-Arg-AMC substrate)", "assay_type": "biochemical", "conditions": "pH 5.5, 25° C.", "experimental": "To determine the inhibitory activity of the compound against human cathepsin L (CatL): the enzyme level inhibitory activity against cathepsin L was determined by fluorescence resonance energy transfer (FRET) technique. In a 96-well plate, 10 μL buffer (50 mM CH3COONa, pH 5.5, 1 mM DTT, 2 mM EDTA) was added to each well, while 0.2 μL of compound (final concentrations were 100 nM, 10 nM, 1 nM, 0.1 nM and 0.01 nM, respectively) and 10 μL cathepsin L were added, and incubated at 25° C. for 15 min. Then 10 μL fluorescent substrate (Z-Phe-Arg-AMC, final concentration was 20 μM) diluted with buffer was added. The fluorescence parameters were determined by Tecan Infinite 200pro fluorescence spectrophotometer. The excitation wavelength and emission wavelength were 360 nm and 465 nm respectively, kept at 25° C., and the data were read after 30 min. A negative control was used, in which no compound was added to the control, and the rest was the same."}, "[2]": {"system": "2019 novel coronavirus (2019-nCov)", "experiment": "Inhibitory activity on replication of 2019 novel coronavirus (cytopathic effect, MTS, RD cells)", "assay_type": "cell-based", "conditions": "for virus inhibitory activity (in words): CQ as positive control, different concentration gradients; for EC50: Severe acute respiratory syndrome coronavirus 2, RD, read-out: EC50, inhibition of 2019-nCoV virus replication"}, "2019-nCoV 3CL protease": {"target": "T1, 2019-nCoV 3CL protease (Severe acute respiratory syndrome coronavirus 2, UniProt P0DTD1)", "T1 construct": "against 3CL protease of 2019 novel coronavirus (2019-nCoV 3CL^pro)", "experiment": "Inhibitory activity against 3CL protease of 2019 novel coronavirus (FRET)", "assay_type": "biochemical", "conditions": "for IC50: FRET, 37° C., substrate 20 μM", "experimental": "To determine the inhibitory activity of the compound against 3CL protease of 2019 novel coronavirus (2019-nCoV 3CL^pro): the enzyme level inhibitory activity of inhibitors against 3CL protease was determined by fluorescence resonance energy transfer (FRET) technology. In a 96-well plate, 27.5 μL of buffer (20 mM Tris, 100 mM NaCl, 1 mM EDTA, pH 7.4) was added to each well, 2.5 μL compounds ([…], respectively) and 5 μL […] (final concentration was 3 μM) were added at the same time. Incubated at 37° C. for 15 min. Then 15 μL fluorescent substrate diluted with buffer (final concentration was 20 μM) was added. The fluorescence parameters were determined by Ge n5 fluorescence spectrophotometer. The excitation wavelength and emission wavelength were 340 nm and 490 nm respectively, kept at 37° C., and the data were read after 10 min. A negative control was used, in which no compound was added to the control, and the rest was the same."}, "[3]": {"experiment": "Toxicity test in SD rats with repeated intravenous administration", "assay_type": "in vivo", "description": "The purpose of this experiment is to observe the potential toxicity of SD rats after intravenous DC406009 for 7 consecutive days and to determine the possible toxic target organs. To provide non-toxic dose and/or toxic dose for the subsequent toxicity test design and clinical trial protocol design. To assess the level of drug exposure in vivo, a toxicokinetic evaluation is accompanied.\n36 SD rats were divided into 8 groups (3 in toxicity test group/gender/group, a total of 5 groups; 1 in toxic satellite group/gender/group, 3 groups), intravenous injection of solvent (5% DMSO/5% EtOH/40% PEG300/50% NaCl), 0.9% sodium chloride injection and DC406009 (5, 15, 30 mg/kg/day), once a day for 7 consecutive days, all animals were euthanized on Day 8. During the test, the following indicators were evaluated: toxicology (only samples were collected), clinical observation, body weight, food consumption, clinical pathology (hematology, hemagglutination, plasma biochemistry) and anatomical macroscopic morphological observation."}}, "note": "Where two headings read alike, the source gives them in different places."}
{"compound": "CCN(CC)CCCC(C)Nc1ccnc2cc(Cl)ccc12", "note": "(stereo not drawn) [CQ]", "values": [{"measurement": "EC50", "setting": "[1]", "value": 1130, "unit": "nM"}]}
{"compound": "O=C(NCc1ccccc1)C(=O)[C@H](C[C@@H]1CCCNC1=O)NC(=O)[C@H](CC1CCCCC1)NC(=O)c1cc2ccccc2[nH]1", "note": "[Example A5, N—((S)-1-(((S)-4-(benzylamino)-3,4-dione-1-((S)-2-oxopiperidin-3-yl)but-2-yl)amino)-3-cyclohexyl-1-oxopropan-2-yl)-1H-indole-2-carboxamide]", "values": [{"measurement": "IC50", "setting": "human cathepsin L", "value": "0.45 ± 0.02", "unit": "nM"}]}
{"compound": "O=C(NCc1ccccc1)C(=O)[C@H](C[C@@H]1CCCNC1=O)NC(=O)[C@H](CC1CCCCC1)NC(=O)c1cc2ccccc2o1", "note": "[Example A13, N—((S)-1-(((S)-4-(benzylamino)-3,4-dione-1-((S)-2-oxopiperidin-3-yl)but-2-yl)amino)-3-cyclohexyl-1-oxopropan-2-yl)-benzofuran-2-carboxamide]", "values": [{"measurement": "IC50", "setting": "human cathepsin L", "value": "1.36 ± 0.04", "unit": "nM"}, {"measurement": "virus inhibitory activity (in words)", "setting": "[2]", "value": "excellent virus inhibitory activity"}, {"measurement": "EC50", "setting": "[2]", "value": 9240, "unit": "nM"}, {"measurement": "IC50", "setting": "2019-nCoV 3CL protease", "value": 2.4, "unit": "µM"}]}
{"compound": "O=C(NCc1ccccc1)C(=O)[C@H](C[C@@H]1CCNC1=O)NC(=O)[C@H](CC1CCCCC1)NC(=O)c1ccc2ccccc2n1", "note": "[Example A42, N—((S)-1-(((S)-4-(benzylamino)-3,4-dione-1-((S)-2-oxopyrrolidin-3-yl)but-2-yl)amino)-3-cyclohexyl-1-oxopropan-2-yl)-quinoline-2-carboxamide]", "values": [{"measurement": "virus inhibitory activity (in words)", "setting": "[2]", "value": "excellent virus inhibitory activity"}, {"measurement": "virus inhibitory activity (in words)", "setting": "[2]; listed as 4001", "value": "better than that of positive control CQ"}, {"measurement": "EC50", "setting": "[2]", "value": 580, "unit": "nM"}, {"measurement": "IC50", "setting": "2019-nCoV 3CL protease", "value": 3, "unit": "µM"}]}
{"compound": "O=C(NCc1ccccc1)C(=O)[C@H](C[C@@H]1CCCNC1=O)NC(=O)[C@H](Cc1cccc(F)c1)NC(=O)c1cc2ccccc2o1", "note": "[Example A284]", "values": [{"measurement": "IC50", "setting": "human cathepsin L", "value": "0.45 ± 0.01", "unit": "nM"}]}
{"compound": "O=C(NCc1ccccc1)C(=O)[C@H](C[C@@H]1CCCNC1=O)NC(=O)[C@H](Cc1ccc(F)cc1)NC(=O)c1cc2ccccc2o1", "note": "[Example A289]", "values": [{"measurement": "IC50", "setting": "human cathepsin L", "value": "0.66 ± 0.008", "unit": "nM"}, {"measurement": "virus inhibitory activity (in words)", "setting": "[2]", "value": "excellent virus inhibitory activity"}, {"measurement": "virus inhibitory activity (in words)", "setting": "[2]; listed as 6009", "value": "better than that of positive control CQ"}, {"measurement": "EC50", "setting": "[2]", "value": 296, "unit": "nM"}, {"measurement": "tolerability (in words)", "setting": "[3]; SD rats, 5, 15, 30 mg/kg/day intravenously once a day for 7 consecutive days", "value": "animals can tolerate"}, {"measurement": "MTD at 7 days", "setting": "[3]; both sexes, SD, rat, in vivo, iv", "value": "> 30", "unit": "mg/kg/day"}, {"measurement": "inhibition at 1 µM", "setting": "2019-nCoV 3CL protease; compound 1 uM, read-out: 1 uM inhibition rate", "value": 13.5, "unit": "%"}, {"measurement": "inhibition at 10 µM", "setting": "2019-nCoV 3CL protease; compound 10 uM, read-out: 10 uM inhibition rate", "value": 40.8, "unit": "%"}]}
{"compound": "O=C(NCc1ccccc1)C(=O)[C@H](C[C@@H]1CCCNC1=O)NC(=O)[C@H](Cc1ccc(F)c(F)c1)NC(=O)c1cc2ccccc2o1", "note": "[Example A290]", "values": [{"measurement": "IC50", "setting": "human cathepsin L", "value": "0.47 ± 0.06", "unit": "nM"}]}
{"compound": "O=C(NCc1ccccc1)C(=O)[C@H](C[C@@H]1CCNC1=O)NC(=O)[C@H](Cc1cccc(F)c1)NC(=O)c1ccc2ccccc2n1", "note": "[Example A305, N—((S)-1-(((S)-4-(benzylamino)-3,4-dione-1-((S)-2-oxopyrrolidin-3-yl)but-2-yl)amino)-3-(3-fluorophenyl)-1-oxopropan-2-yl)-quinoline-2-carboxamide]", "values": [{"measurement": "IC50", "setting": "2019-nCoV 3CL protease", "value": 8.5, "unit": "µM"}]}
{"compound": "O=C(NCc1ccccc1)C(=O)[C@H](C[C@@H]1CCNC1=O)NC(=O)[C@H](Cc1ccc(F)cc1)NC(=O)c1ccc2ccccc2n1", "note": "[Example A306, N—((S)-1-(((S)-4-(benzylamino)-3,4-dione-1-((S)-2-oxopyrrolidin-3-yl)but-2-yl)amino)-3-(4-fluorophenyl)-1-oxopropan-2-yl)-quinoline-2-carboxamide]", "values": [{"measurement": "IC50", "setting": "2019-nCoV 3CL protease", "value": 6.7, "unit": "µM"}]}
{"compound": "O=C(NC1CC1)C(=O)[C@H](C[C@@H]1CCCNC1=O)NC(=O)[C@H](CC1CCCCC1)NC(=O)c1cc2ccccc2o1", "note": "[Example A309, N—((S)-1-(((S)-4-(cyclopropylamino)-3,4-dione-1-((S)-2-oxopiperidin-3-yl)but-2-yl)amino)-3-cyclohexyl-1-oxopropan-2-yl)-benzofuran-2-carboxamide]", "values": [{"measurement": "IC50", "setting": "human cathepsin L", "value": "0.63 ± 0.08", "unit": "nM"}]}
{"compound": "O=C(NC1CC1)C(=O)[C@H](C[C@@H]1CCCNC1=O)NC(=O)[C@H](Cc1ccc(F)cc1)NC(=O)c1cc2ccccc2o1", "note": "[Example A310, N—((S)-1-(((S)-4-(cyclopropylamino)-3,4-dione-1-((S)-2-oxopiperidin-3-yl)but-2-yl)amino)-3-(4-fluorophenyl)-1-oxopropan-2-yl)-benzofuran-2-carboxamide]", "values": [{"measurement": "IC50", "setting": "human cathepsin L", "value": "0.57 ± 0.01", "unit": "nM"}]}
